{
  "source": "patent US20210059927A1",
  "about": "“COSMETIC COMPOSITION COMPRISING DENDROBIUM CANDIDUM FLOWER EXTRACT” (LG HOUSEHOLD & HEALTH CARE LTD., priority 2017, published 2021)",
  "key": {"Aquaporin 3": {"system": "Aquaporin 3", "assay": "Moisturizing gene expression by qRT-PCR in HaCaT: AQP3", "type": "cell-based, human", "conditions": "mRNA, positive control 10 ng/ml, negative control = 1.00, n=4", "method": "In order to confirm the skin moisturizing effect of each extract prepared in Preparation Examples 1 to 9, gene expression related to moisturizing was measured using the cells cultured as below.\nHuman keratinocytes (HaCaT) were in a 6-hole cell culture plate 2×10^5 each, and then cultured using Dulbecco's Modified Eagle's medium (DMEM, Gibco, Co.) including fetal bovine serum (FBS) and antibiotics for 24 hours.\nAfter culturing the cells, it was replaced with DMEM, High Glucose, no Glutamine, no calcium (Gibco, USA), and then the samples obtained in Preparation Examples 1 to 9 were treated at a concentration of 0.1% for 24 hours. […]\n2.5 μg of RNA was quantified and reverse transcription was performed using cDNA synthesis kit (PhileKorea, Korea). […] Quantitative real time PCR (qRT-). […]\nThe experimental results obtained by qRT-PCT were shown by calculating with the ΔΔCT method (Livak K J, Schmittgen T D: Analysis of relative gene expression data using real-time quantitative PCR and the 2(-Delta Delta C(T)) Method, Methods, 25, 402-408(2001)) based on housekeeping gene and glyceraldehyde-3-phosphate dehydrogenase (GAPDH). To compare effects, moisturizing gene expression was measured in the same manner for a negative control group without treating samples and a positive control group treated with EGF 10 ng/ml and Ca^2+3 mM, respectively. […]"}, "[1]": {"system": "type 1 collagen in human-derived fibroblasts", "assay": "Synthesis promotion effect of type 1 collagen in human-derived fibroblasts (PICP EIA kit)", "type": "cell-based", "conditions": "positive control 10 ng/ml, relative to negative control; n=4", "method": "In order to confirm the wrinkle improvement effect through promoting the synthesis of type 1 collagen of each extract prepared in Preparation Examples 1 to 9, collagen synthesis rate was measured by adding the samples obtained in Preparation Examples 1 to 9 to the culture solution of human-derived fibroblasts. The synthesis of collagen was quantified using a PICP EIA kit (Procollagen Type I C-Peptide Enzyme ImmunoAssay KIT). After adding the sample to a culture medium of fibroblasts (DMEM medium) at a final concentration of 0.1% and culturing for 48 hours, cultures were taken and the degree of collagen synthesis of type 1 collagen at each concentration was measured at 450 nm using a spectrophotometer with PICP EIA kit.\nFor comparison of the effects, the degree of collagen synthesis was measured in the same manner with respect to a culture medium (negative control group) of untreated fibroblasts and the sample (positive control) added with TGF-β to a final concentration of 10 ng/mL.\nCollagen synthesis rate (%) was calculated as the ratio of the collagen production amount relative to the negative control, and the results are shown in Table 1 below."}, "B-16 mouse melanoma cell": {"system": "B-16 mouse melanoma cell", "assay": "Inhibitory effect of melanin production at cellular level", "type": "cell-based", "conditions": "positive control 100 ppm, 3 days, relative to negative control; n=4", "method": "In order to confirm the brightening effect through the inhibition of melanin production of each extract prepared in Preparation Examples 1 to 9, the samples obtained in Preparation Examples 1 to 9 were added to a culture medium of mouse melanoma cells (B-16 mouse melanoma cell) to measure the total amount of melanin (Lotan R. et al., Cancer Res. 40:3345-3350, 1980). Prior to measuring the total amount of melanin, brightening evaluation was performed at non-toxic concentrations by first evaluating the toxicity of mouse melanoma cells. […]\nThereafter, the cells were trypsin-treated, detached from the culture vessel, and centrifuged, and melanin was extracted. The detached cells were added with 1 mL of sodium hydroxide solution (1N concentration), boiled for 10 minutes to dissolve the melanin, and the absorbance was measured at 405 nm using a spectrophotometer to measure the amount of melanin produced.\nThe amount of melanin was measured by the absorbance of the unit cell count (1×10^6 cells), and the melanin production inhibition rate (%) was calculated as the total amount of melanin relative to the negative control group, and the results are shown in Table 2 below."}, "RAW264.7 cell line": {"system": "RAW264.7 cell line", "assay": "Inhibitory effect of nitric oxide (NO) production, GRIESS method, LPS-stimulated", "type": "cell-based, mouse", "conditions": "positive control 20 ppm, LPS 1 ppm, 24 hours, relative to LPS-only group; n=4", "method": "In order to confirm the anti-inflammatory effect and skin trouble improvement effect of each extract prepared in Preparation Examples 1 to 9, NO production inhibitory effect was measured by the GRIESS method using RAW264.7 cell line (ATCC number: CRL-2278).\nSpecifically, RAW264.7 cells, which are macrophages of mice, were subcultured several times, and cultured for 24 hours after being placed in a 24-well plate such that 3×10^5 cells were placed in one well. After exchanging with a cell medium containing the sample at a final concentration of 0.1%, an untreated medium was used as a negative group and for a positive control group, 20 ppm of L-NG-monomethylarginine (L-NMMA) was used, which is a NO-production inhibitor. 1 ppm of lipopolysaccharide was treated as a stimulus source and cultured for 24 hours. The supernatant was transferred to a 96-well plate by 100 μL, and the GRIESS solution was added by 100 μL to react at room temperature for 10 minutes, and the NO inhibitory effect was determined by measuring the absorbance at 540 nm.\nThe NO production inhibitory rate (%) was calculated as a relative ratio of the amount of reduced NO compared to the LPS-only treatment group, and the results are shown in Table 3 below."}},
  "data": [
    {"molecule": "EGF: Positive control for moisturizing gene expression, 10 ng/ml", "values": [
      {"measurement": "Aquaporin 3 (fold)", "setting": "Aquaporin 3", "value": 3.27, "unit": "fold"}
    ]},
    {"molecule": "TGF-β", "values": [
      {"measurement": "Collagen synthesis rate (%)", "setting": "[1]", "value": 15.21, "unit": "%"}
    ]},
    {"molecule": "OC[C@H]1O[C@@H](Oc2ccc(O)cc2)[C@H](O)[C@@H](O)[C@@H]1O", "note": "[Albutin]", "values": [
      {"measurement": "Melanin production inhibition rate (%)", "setting": "B-16 mouse melanoma cell", "value": 33.13, "unit": "%"}
    ]},
    {"molecule": "CNC(=N)NCCC[C@H](N)C(=O)O", "note": "[L-NMMA, L-NG-monomethylarginine]", "values": [
      {"measurement": "NO production inhibitory rate (%)", "setting": "RAW264.7 cell line", "value": 51.85, "unit": "%"}
    ]}
  ]
}
